PubChem BioAssay (NCI)
Values joined by “and” are separate entries in the source; they are usually repeats but may differ in a detail not shown here. Identical values can stand only once.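 1) Cells in 96-well plates. 2) Compound, 48 h, 5 concentrations. 3) Linear interpolation between surrounding doses. 4) Unreached endpoint = highest concentration. Abbreviation: GI50, concentration required for 50% inhibition of growth. TGI: total growth inhibition.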

Legend:
Experiment in all cases: NCI tumour cell line growth inhibition, 48 h
MDA-N = test system: MDA-N
XF 498 CNS = test system: XF 498 CNS
M19-MEL melanoma = test system: M19-MEL melanoma
DMS 114 small cell lung = test system: DMS 114 small cell lung
KM20L2 colon = test system: KM20L2 colon
DMS 273 small cell lung = test system: DMS 273 small cell lung
DLD-1 colon = test system: DLD-1 colon
HOP-18 NSCLC = test system: HOP-18 NSCLC
P388/ADR leukemia = test system: P388/ADR leukemia
SN12K1 renal = test system: SN12K1 renal
RXF-631 renal = test system: RXF-631 renal

SMILES	TGI (MDA-N) [µM]	TGI (XF 498 CNS)	TGI (M19-MEL melanoma)	TGI (DMS 114 small cell lung)	TGI (KM20L2 colon) [µM]	TGI (DMS 273 small cell lung) [µM]	TGI (DLD-1 colon)	TGI (HOP-18 NSCLC) [µM]	further results
CCOC(=O)c1c(NCc2ccccc2)n(-c2ccccc2)c(=S)n(-c2ccccc2)c1=O	> 100								
COC1(C)C(=O)N2C1N(C(=O)OCc1ccccc1)CC2(C)C (stereo not drawn)		> 100 µM	> 100 µM	> 100 µM	> 100	> 100	> 100 µM		
Cc1nn(C(=O)c2ccncc2)c2c1C(c1cccc([N+](=O)[O-])c1)SC(N)=N2 (stereo not drawn)	> 10								
COC(=O)/C(=C\c1ccco1)P(=O)(OC)OC	> 100								
COc1cccc2c1[C@H]1CO[C@H]3C4C[C@H](C(=O)O)C([C@@H](C2)N13)N4C (stereo partly drawn)	0.406	4.19 µM and 1.5 µM	9.62 µM and 1.32 µM	4.66 µM and 0.803 µM	7.84	1.31	7.81 µM and 17.4 µM	> 27.5	GI50 (XF 498 CNS): 0.632 µM; GI50 (M19-MEL melanoma): 0.611 µM; GI50 (DMS 114 small cell lung): 0.187 µM; GI50 (HOP-18 NSCLC): 1.13 µM; TGI (P388/ADR leukemia): 0.652 µM; TGI (SN12K1 renal): 8.4 µM; GI50 (DMS 273 small cell lung): 0.516 µM; GI50 (DLD-1 colon): 0.452 µM
CCN(CC)CCCC(C)Nc1c(Sc2cnc3cc(Cl)ccc3c2NC(C)CCCN(CC)CC)cnc2cc(Cl)ccc12 (stereo not drawn)			3.02 µM		3.09	3.17	3.84 µM	4.49	TGI (RXF-631 renal): 4.48 µM
O=NN(CCCl)C(=O)NC1CCC(=O)NC1=O (stereo not drawn)	791	265 µM	972 µM	814 µM	> 1250	634	1050 µM	1070	TGI (P388/ADR leukemia): 399 µM; TGI (SN12K1 renal): 348 µM
N.N.N.N.N.O=S(=O)([O-])C(F)(F)F.O=S(=O)([O-])C(F)(F)F.[Os+8]					45.3				GI50 (KM20L2 colon): 20.7 µM
CCCCc1c2c(nc3c1CCc1cc4cc5c(nc4nc1-3)-c1nc3c(c(CCCC)c1CC5)CCC/C3=C\c1ccccc1)/C(=C/c1ccccc1)CCC2				> 100 µM	> 100	> 100	> 100 µM		
Nc1ccc(C(=O)NN2C(=O)C(Cl)C2c2cccc(O)c2)cc1 (stereo not drawn)			38.3 µM	19.9 µM	31.8	23.3	28.4 µM		
CC1(C)CC2=C(Sc3ccccc3N2)C(=O)C1C(=O)C(=O)Nc1cc(Cl)ccc1Cl (stereo not drawn)	> 100								
Cc1cc(C)nc(NS(=O)(=O)c2ccc(NC(=O)c3cccn4c(=O)c5ccccc5nc34)cc2)n1		> 100 µM	> 100 µM		> 100	> 100	> 100 µM		
COc1cc2c(cc1-c1coc3cc(OCC=C(C)C)ccc3c1=O)OCO2	28.5								
O=C(O)COc1ccc(C(=O)/C(SS/C(C(=O)c2ccc(OCC(=O)O)c(Cl)c2Cl)=C2\C=C(c3ccc(Br)cc3)SS2)=C2/C=C(c3ccc(Br)cc3)SS2)c(Cl)c1Cl		9.89 µM	> 100 µM	6.76 µM	> 100	> 100	> 63.2 µM	39.9	
COCCOCOC(C)(C)[C@H](CCOC(C)=O)O[Si](c1ccccc1)(c1ccccc1)C(C)(C)C			43.2 µM	55.4 µM	> 100	26.3	> 100 µM	> 100	TGI (RXF-631 renal): 43.1 µM
COc1ccc(Cc2nc3ccccc3s2)cc1OC		28.8 µM	29.4 µM	29.9 µM	36.5	29.2	31.7 µM	62.2	TGI (RXF-631 renal): 31.7 µM
CC(=O)[CH-]C(=O)Nc1ccccc1.CC(=O)[CH-]C(=O)Nc1ccccc1.CC[O-].CC[O-].[Ti+4]			> 100 µM	> 100 µM	> 100		> 100 µM	> 100	GI50 (M19-MEL melanoma): > 100 µM; GI50 (DMS 114 small cell lung): > 100 µM; GI50 (HOP-18 NSCLC): > 100 µM; GI50 (KM20L2 colon): > 100 µM; GI50 (DLD-1 colon): > 100 µM
Cc1ccc(NC(=O)CC2SC(N)=NC2=O)cc1C (stereo not drawn)		> 100 µM			> 100		> 100 µM		TGI (RXF-631 renal): > 100 µM
C/C(=C\Cc1cc(O)ccc1O)CCc1c(C)c(O)c(O)c(C=O)c1C		48.8 µM	38.8 µM	34 µM	> 100	74.6	56.8 µM	59.9	
Cn1nnc2c(C(N)=O)ncn2c1=O	> 100	> 100 µM	> 100 µM	> 100 µM	> 100		> 100 µM	> 100	
CC(=O)NNc1nc(C)c(C(=O)/C=C/c2ccc(/C=C/C(=O)c3sc(NNC(C)=O)nc3C)cc2)s1		> 100 µM	> 100 µM	> 100 µM		> 100	> 100 µM		TGI (RXF-631 renal): > 100 µM
Nc1ncnc2c1nnn2C1C=C(CO)C(O)C1O (stereo not drawn)		> 100 µM	> 100 µM	> 86.2 µM	> 100	> 100	> 92.6 µM	> 100	
O/N=C1\CCc2nonc2\C1=N/Nc1ccccc1	> 100								

SMILES	TGI (MDA-N) [µM]	TGI (XF 498 CNS)	TGI (M19-MEL melanoma)	TGI (DMS 114 small cell lung)	TGI (KM20L2 colon) [µM]	TGI (DMS 273 small cell lung) [µM]	TGI (DLD-1 colon)	TGI (HOP-18 NSCLC) [µM]	further results
CN1CCc2c1nc(-c1cccnc1)c1c2N(C)CC1		> 100 µM	> 100 µM	> 100 µM	> 100	> 100	> 100 µM	> 100	TGI (RXF-631 renal): > 100 µM
O=C(COc1ccc(Cl)cc1)N1CCN(C(=O)COc2ccc(Cl)cc2)c2ccccc21		> 100 µM	> 100 µM	> 100 µM	> 100	> 100	> 100 µM	> 100	
Nc1cc2cccc[n+]2c2cccc(Cl)c12	61.5								GI50 (MDA-N): 21.3 µM
CCC1C(=O)OCc2c1cc1n(c2=O)C(CC)c2c-1nc1ccccc1c2Cl (stereo not drawn)		66.5 µM	> 100 µM		> 100	> 100	> 100 µM	98.2	
CC(=O)Nc1ccc(C(=O)N2N=C(C)/C(=C/c3cccc([N+](=O)[O-])c3)C2=O)cc1			> 100 µM	> 100 µM		> 100	> 100 µM	> 100	
NCCC(=O)NC(Cc1cnc[nH]1)C(=O)O (stereo not drawn)	> 100								
NC(=O)C12CC3CC(CC(Br)(C3)C1)C2		> 100 µM		> 100 µM	> 100	> 100	> 100 µM	> 100	TGI (RXF-631 renal): > 100 µM
CC(C)=Nn1cnc(C(=N)C#N)c1N	> 100								
CCC[CH2][Sn]([CH2]CCC)([O]C(=O)/C=C/c1ccccc1F)[O]C(=O)/C=C/c1ccccc1F		0.892 µM	2.78 µM	1.46 µM	2.64	2.93	1.5 µM	2.98	GI50 (XF 498 CNS): 0.258 µM; GI50 (M19-MEL melanoma): 0.891 µM; GI50 (DMS 114 small cell lung): 0.445 µM; GI50 (HOP-18 NSCLC): 1.62 µM; GI50 (KM20L2 colon): 1.34 µM; GI50 (DMS 273 small cell lung): 1.16 µM; GI50 (RXF-631 renal): 0.253 µM; TGI (RXF-631 renal): 0.972 µM; GI50 (DLD-1 colon): 0.393 µM
Cc1ccc(N=C2SC(c3ccc(C)cc3)(c3ccc(C)cc3)c3ccccc32)cc1	> 100								
CC(=O)C12C[C@](C#N)(N3CCCCCC3)C1C=Cc1ccccc12 (stereo partly drawn)	> 100								
C#C[C@H]1CCCCCC1O (stereo partly drawn)		> 100 µM	> 100 µM	> 100 µM	> 100	> 100	> 100 µM	> 100	TGI (RXF-631 renal): > 100 µM
CSCCCNC(=O)c1csc(-c2csc(CCNC(=O)CNC(=O)CNC(=O)CNC(=O)OC(C)(C)C)n2)n1	> 100								
COC(=O)/C(C#N)=C1\CCc2ccccc21		> 100 µM	> 100 µM	> 100 µM	> 100	> 100	> 100 µM		
COc1ccc(-c2onc(-c3c(C)cc(C)cc3C)c2C2=NCCN2)cc1			> 100 µM		> 100		> 100 µM	> 100	TGI (RXF-631 renal): > 100 µM
O=C(NCC(=O)N1CCOC1=O)OCc1ccccc1		> 100 µM	> 100 µM	> 100 µM	> 100	> 100	> 100 µM	> 100	
COC(=O)C#CCC1CCCC1C1SCCS1 (stereo not drawn)		> 100 µM	> 100 µM	> 100 µM	> 100	> 100	> 100 µM	> 100	TGI (RXF-631 renal): > 100 µM
O=C1c2ccccc2C(=O)N1C1(C(=O)NC2(C(=O)O)CCCC2)CCCC1	> 100								
CC1C2CC(C/C2=N/O)C1(C)C (stereo not drawn)	> 100								
CC1=C(Cl)C[C@@H](/C(C)=C\Cl)O[C@@]1(O)C(Br)Br	41.8								
COC/N=C(/N)NC#N			> 100 µM	37.6 µM	> 100	91.5	> 100 µM	> 100	
CC1=NN(C(=O)c2ccc(Cl)cc2)C(=O)/C1=C/c1ccc(Cl)cc1		> 100 µM	> 100 µM	> 100 µM	> 100		> 100 µM		
N#CC(C#N)=C(N)/C(C#N)=C/c1ccc2[nH]ccc2c1	> 100		> 100 µM	> 100 µM	> 100	> 100		> 100	
